Test [1] concerns the target T1, Serine/threonine-protein kinase Nek2 (Homo sapiens) (UniProt P51955).
T1 sequence (whole entry): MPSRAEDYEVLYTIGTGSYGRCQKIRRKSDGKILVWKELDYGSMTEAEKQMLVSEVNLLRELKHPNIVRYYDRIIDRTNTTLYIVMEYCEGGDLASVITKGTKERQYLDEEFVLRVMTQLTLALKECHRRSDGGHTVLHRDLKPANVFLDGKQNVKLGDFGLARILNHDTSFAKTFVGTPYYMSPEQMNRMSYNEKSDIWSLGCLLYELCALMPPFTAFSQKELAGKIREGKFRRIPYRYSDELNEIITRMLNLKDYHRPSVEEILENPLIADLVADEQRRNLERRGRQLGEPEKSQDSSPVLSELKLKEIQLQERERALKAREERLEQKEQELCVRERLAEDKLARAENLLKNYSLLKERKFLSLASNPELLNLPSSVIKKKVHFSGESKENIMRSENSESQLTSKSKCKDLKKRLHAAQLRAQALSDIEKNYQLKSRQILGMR
As to conditions: at 10 µM.

For test [2], the system named is T2, Receptor-type tyrosine-protein kinase FLT3 (Homo sapiens), P36888 [K663Q].
T2 sequence (whole entry): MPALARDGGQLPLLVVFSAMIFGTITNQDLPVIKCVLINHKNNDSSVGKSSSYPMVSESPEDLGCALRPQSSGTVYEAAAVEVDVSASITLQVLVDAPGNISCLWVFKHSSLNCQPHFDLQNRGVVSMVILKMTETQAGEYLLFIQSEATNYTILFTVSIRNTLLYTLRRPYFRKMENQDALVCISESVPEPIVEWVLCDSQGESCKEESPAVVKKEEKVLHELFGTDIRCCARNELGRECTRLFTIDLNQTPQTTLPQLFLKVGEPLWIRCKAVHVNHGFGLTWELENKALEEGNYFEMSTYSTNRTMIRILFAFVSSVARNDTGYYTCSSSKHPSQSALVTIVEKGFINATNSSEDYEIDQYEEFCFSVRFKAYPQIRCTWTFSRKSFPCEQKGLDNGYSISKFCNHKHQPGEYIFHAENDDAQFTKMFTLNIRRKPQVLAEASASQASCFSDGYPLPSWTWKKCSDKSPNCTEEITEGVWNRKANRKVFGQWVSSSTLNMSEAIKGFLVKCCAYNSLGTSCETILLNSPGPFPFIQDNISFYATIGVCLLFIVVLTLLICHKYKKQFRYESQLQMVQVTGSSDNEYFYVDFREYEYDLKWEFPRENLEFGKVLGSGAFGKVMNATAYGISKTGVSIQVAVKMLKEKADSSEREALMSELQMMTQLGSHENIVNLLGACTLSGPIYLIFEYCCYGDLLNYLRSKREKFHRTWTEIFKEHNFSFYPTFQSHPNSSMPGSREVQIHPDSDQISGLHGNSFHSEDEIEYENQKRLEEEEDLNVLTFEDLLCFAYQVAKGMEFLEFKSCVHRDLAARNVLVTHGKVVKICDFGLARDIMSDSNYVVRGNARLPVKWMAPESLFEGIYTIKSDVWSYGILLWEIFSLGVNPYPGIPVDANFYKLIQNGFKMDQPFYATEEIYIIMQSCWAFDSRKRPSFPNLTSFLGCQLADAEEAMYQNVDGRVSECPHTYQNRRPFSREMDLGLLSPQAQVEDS
As to conditions: at 10 µM.

Test [3] deals with Leucine-rich repeat serine/threonine-protein kinase 2 (Homo sapiens, UniProt Q5S007). Nature of the test: Selectivity interaction (Kinase panel (Invitrogen)) EUB0000639a LRRK2. As to conditions: at 200 nM.
Chain of Leucine-rich repeat serine/threonine-protein kinase 2 (Q5S007 whole entry): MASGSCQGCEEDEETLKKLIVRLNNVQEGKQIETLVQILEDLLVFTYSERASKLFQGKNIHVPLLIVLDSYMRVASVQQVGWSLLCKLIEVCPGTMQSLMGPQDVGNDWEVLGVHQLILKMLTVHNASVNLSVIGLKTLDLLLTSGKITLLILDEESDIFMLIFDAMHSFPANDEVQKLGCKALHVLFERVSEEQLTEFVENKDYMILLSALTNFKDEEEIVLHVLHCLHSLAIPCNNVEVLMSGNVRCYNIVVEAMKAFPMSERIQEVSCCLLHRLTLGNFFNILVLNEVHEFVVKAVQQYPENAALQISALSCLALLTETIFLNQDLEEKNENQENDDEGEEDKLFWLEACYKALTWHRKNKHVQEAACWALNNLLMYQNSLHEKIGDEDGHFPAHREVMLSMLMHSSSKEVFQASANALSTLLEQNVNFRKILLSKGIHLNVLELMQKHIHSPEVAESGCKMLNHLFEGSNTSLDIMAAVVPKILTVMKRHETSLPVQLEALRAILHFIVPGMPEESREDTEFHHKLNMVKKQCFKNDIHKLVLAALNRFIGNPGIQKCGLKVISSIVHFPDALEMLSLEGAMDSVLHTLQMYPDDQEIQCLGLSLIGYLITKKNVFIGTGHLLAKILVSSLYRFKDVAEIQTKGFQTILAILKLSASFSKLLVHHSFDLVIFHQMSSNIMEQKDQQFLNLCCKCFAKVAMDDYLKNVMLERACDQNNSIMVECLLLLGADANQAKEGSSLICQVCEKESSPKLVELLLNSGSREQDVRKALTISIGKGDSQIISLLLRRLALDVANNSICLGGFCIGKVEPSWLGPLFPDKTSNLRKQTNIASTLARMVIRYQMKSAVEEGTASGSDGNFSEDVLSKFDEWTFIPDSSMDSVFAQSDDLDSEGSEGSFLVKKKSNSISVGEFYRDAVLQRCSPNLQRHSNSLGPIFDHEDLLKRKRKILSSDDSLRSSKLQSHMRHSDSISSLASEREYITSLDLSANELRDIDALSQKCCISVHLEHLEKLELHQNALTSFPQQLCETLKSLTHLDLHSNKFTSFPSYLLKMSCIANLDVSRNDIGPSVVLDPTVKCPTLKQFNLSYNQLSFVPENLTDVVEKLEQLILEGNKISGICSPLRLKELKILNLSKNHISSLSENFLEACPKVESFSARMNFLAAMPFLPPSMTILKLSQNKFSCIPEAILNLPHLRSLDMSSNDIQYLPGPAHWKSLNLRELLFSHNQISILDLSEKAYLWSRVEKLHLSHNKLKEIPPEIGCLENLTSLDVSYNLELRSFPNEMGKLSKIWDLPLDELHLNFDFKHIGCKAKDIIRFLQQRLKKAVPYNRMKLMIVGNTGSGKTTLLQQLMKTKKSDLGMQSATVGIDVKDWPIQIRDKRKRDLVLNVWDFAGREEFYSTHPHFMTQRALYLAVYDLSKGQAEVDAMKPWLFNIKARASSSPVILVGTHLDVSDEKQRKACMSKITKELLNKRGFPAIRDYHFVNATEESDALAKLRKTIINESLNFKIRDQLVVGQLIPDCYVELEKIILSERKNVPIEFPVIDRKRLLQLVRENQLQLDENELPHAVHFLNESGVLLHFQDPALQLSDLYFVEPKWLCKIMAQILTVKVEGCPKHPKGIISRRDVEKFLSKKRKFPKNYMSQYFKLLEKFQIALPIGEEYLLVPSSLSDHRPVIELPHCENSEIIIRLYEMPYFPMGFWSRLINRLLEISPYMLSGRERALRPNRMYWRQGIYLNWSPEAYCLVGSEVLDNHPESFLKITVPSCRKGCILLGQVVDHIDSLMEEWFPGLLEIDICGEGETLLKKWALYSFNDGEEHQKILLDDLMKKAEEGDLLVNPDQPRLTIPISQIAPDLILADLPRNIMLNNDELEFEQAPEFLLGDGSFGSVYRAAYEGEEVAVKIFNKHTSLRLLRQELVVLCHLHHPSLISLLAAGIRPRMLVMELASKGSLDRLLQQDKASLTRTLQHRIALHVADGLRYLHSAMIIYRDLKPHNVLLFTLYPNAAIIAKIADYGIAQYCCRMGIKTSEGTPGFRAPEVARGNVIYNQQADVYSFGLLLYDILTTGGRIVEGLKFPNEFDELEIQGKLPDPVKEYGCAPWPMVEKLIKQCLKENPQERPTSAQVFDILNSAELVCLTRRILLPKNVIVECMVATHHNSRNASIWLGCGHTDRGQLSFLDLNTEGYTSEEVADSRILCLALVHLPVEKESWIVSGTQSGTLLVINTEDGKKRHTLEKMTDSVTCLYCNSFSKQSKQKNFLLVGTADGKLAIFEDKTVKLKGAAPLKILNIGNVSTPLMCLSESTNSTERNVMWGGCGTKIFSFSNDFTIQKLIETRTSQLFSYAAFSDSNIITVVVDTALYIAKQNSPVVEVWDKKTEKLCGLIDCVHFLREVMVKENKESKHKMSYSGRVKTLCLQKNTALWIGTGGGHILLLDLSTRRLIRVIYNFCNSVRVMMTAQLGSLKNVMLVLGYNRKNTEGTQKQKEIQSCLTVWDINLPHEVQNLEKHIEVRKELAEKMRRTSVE
Test [4] deals with Receptor-type tyrosine-protein kinase FLT3 (Homo sapiens) (UniProt P36888). As to the kind of experiment: (§1) Selectivity interaction (ProQinase) EUB0000171b FLT3.
Test [5] concerns T3, Receptor-type tyrosine-protein kinase FLT3 (Homo sapiens), P36888 [D835Y].
T3 sequence (whole entry): T2 sequence (whole entry) with Q663K, D835Y
The description is as §1.

For test [6], the target named is T4, Dual specificity mitogen-activated protein kinase kinase 3 (Homo sapiens) (UniProt P46734).
T4 sequence (whole entry): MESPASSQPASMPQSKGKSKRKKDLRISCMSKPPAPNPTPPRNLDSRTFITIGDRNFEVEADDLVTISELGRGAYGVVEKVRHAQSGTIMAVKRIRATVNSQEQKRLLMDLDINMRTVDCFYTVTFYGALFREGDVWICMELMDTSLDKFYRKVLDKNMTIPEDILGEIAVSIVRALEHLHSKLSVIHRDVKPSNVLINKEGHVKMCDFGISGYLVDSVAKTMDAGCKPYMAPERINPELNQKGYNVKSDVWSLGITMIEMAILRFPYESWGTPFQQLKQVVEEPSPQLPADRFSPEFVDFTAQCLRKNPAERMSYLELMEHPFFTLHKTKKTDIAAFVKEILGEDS
As to the kind of experiment: Selectivity interaction (KinomeScan (DiscoverX)) EUB0000229b MAP2K3. As to conditions: at 10 µM.

The source of these data is ChEMBL document CHEMBL5465560, “Selectivity Literature for EUbOPEN Chemogenomic Library” (2024).

Where a chain is given by its changes, count along the chain named.

As for `CCN(CC)CCCCNc1ncc2cc(-c3cc(OC)cc(OC)c3)c(NC(=O)NC(C)(C)C)nc2n1`, in test [1], the % of control turned out to be 100%.
`Cc1cc([C@@H](C)Nc2ccccc2C(=O)O)c2nc(N3CCOCC3)cc(=O)n2c1` [AZD-6482]: in test [2], the % of control turned out to be 13%.
On to `CC[C@@H]1[C@H](F)C(=O)N[C@@H]1COc1nccc2cc(C(N)=O)c(OC)cc12` [ZIMLOVISERTIB], for which the % of inhibition in test [3] is 75.5%.
For `C=CC(=O)Nc1cccc(C(=O)Nc2ccc(Nc3cc(-c4[nH]c(SC)nc4C)ccn3)cc2)c1`, the % of control amounted to 78% in test [4] (at 1 µM), 49% in test [4] (at 5 µM), 65% in test [5] (at 1 µM) and 32% in test [5] (at 5 µM).
In the case of `COc1cc(N(C)c2ccnc3ccc(C(F)(F)F)cc23)cc(OC)c1OC`, the % binding in test [6] turned out to be 72%.
